Results taken from PubChem BioAssay (NCI).
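1) Cells in 96-well plates. 2) Compound, 48 h, 5 concentrations. 3) Linear interpolation between surrounding doses. 4) Unreached endpoint = highest concentration. Definition used: TGI = concentration required for complete inhibition of growth.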

Legend:
Experiment in all cases: NCI-60 cell line screen, 48 h
IGROV1 ovarian = test system: IGROV1 ovarian
SR leukemia = test system: SR leukemia
SNB-19 CNS = test system: SNB-19 CNS
OVCAR-3 ovarian = test system: OVCAR-3 ovarian
COLO 205 colon = test system: COLO 205 colon
SK-OV-3 ovarian = test system: SK-OV-3 ovarian
HL-60(TB) leukemia = test system: HL-60(TB) leukemia
UACC-62 melanoma = test system: UACC-62 melanoma
EKVX NSCLC = test system: EKVX NSCLC
A549 NSCLC = test system: A549 NSCLC
RXF-631 renal = test system: RXF-631 renal
OVCAR-8 ovarian = test system: OVCAR-8 ovarian
HCT-15 colon = test system: HCT-15 colon
SK-MEL-28 melanoma = test system: SK-MEL-28 melanoma
CAKI-1 renal = test system: CAKI-1 renal
M14 melanoma = test system: M14 melanoma
SNB-75 CNS = test system: SNB-75 CNS
HCC-2998 colon = test system: HCC-2998 colon
CCRF-CEM leukemia = test system: CCRF-CEM leukemia
M19-MEL melanoma = test system: M19-MEL melanoma
KM20L2 colon = test system: KM20L2 colon
SF-295 CNS = test system: SF-295 CNS
RXF 393 renal = test system: RXF 393 renal
DLD-1 colon = test system: DLD-1 colon
MOLT-4 leukemia = test system: MOLT-4 leukemia
A498 renal = test system: A498 renal
NCI-H23 lung = test system: NCI-H23 lung
U251 CNS = test system: U251 CNS
OVCAR-4 ovarian = test system: OVCAR-4 ovarian
KM12 colon = test system: KM12 colon
UACC-257 melanoma = test system: UACC-257 melanoma
SN12C renal = test system: SN12C renal
SK-MEL-2 melanoma = test system: SK-MEL-2 melanoma
HCT-116 colon = test system: HCT-116 colon
K-562 leukemia = test system: K-562 leukemia
HT29 colon = test system: HT29 colon
HOP-62 NSCLC = test system: HOP-62 NSCLC
DMS 273 small cell lung = test system: DMS 273 small cell lung
SW-620 colon = test system: SW-620 colon
XF 498 CNS = test system: XF 498 CNS
NCI-H460 lung = test system: NCI-H460 lung
RPMI-8226 leukemia = test system: RPMI-8226 leukemia
SF-539 CNS = test system: SF-539 CNS
HOP-92 NSCLC = test system: HOP-92 NSCLC
UO-31 renal = test system: UO-31 renal
ACHN renal = test system: ACHN renal
786-0 renal = test system: 786-0 renal
LXFL 529 NSCLC = test system: LXFL 529 NSCLC
HOP-18 NSCLC = test system: HOP-18 NSCLC
SNB-78 CNS = test system: SNB-78 CNS
LOX IMVI melanoma = test system: LOX IMVI melanoma
TK-10 renal = test system: TK-10 renal
SK-MEL-5 melanoma = test system: SK-MEL-5 melanoma
DMS 114 small cell lung = test system: DMS 114 small cell lung
SF-268 CNS = test system: SF-268 CNS
NCI-H226 lung = test system: NCI-H226 lung
OVCAR-5 ovarian = test system: OVCAR-5 ovarian
MALME-3M melanoma = test system: MALME-3M melanoma
NCI-H522 lung = test system: NCI-H522 lung

Measured: TGI

COC1/C(=C\C(C)=O)c2ccccc2N1C(C)=O (stereo unspecified)
> 100 µM: IGROV1 ovarian | SR leukemia | SNB-19 CNS | OVCAR-3 ovarian | COLO 205 colon | SK-OV-3 ovarian | HL-60(TB) leukemia | UACC-62 melanoma | EKVX NSCLC | A549 NSCLC | RXF-631 renal | OVCAR-8 ovarian | HCT-15 colon | SK-MEL-28 melanoma | CAKI-1 renal | M14 melanoma | SNB-75 CNS | HCC-2998 colon | CCRF-CEM leukemia | M19-MEL melanoma | KM20L2 colon | SF-295 CNS | RXF 393 renal | DLD-1 colon | MOLT-4 leukemia | A498 renal | NCI-H23 lung | U251 CNS | OVCAR-4 ovarian | KM12 colon | UACC-257 melanoma | SN12C renal | SK-MEL-2 melanoma | HCT-116 colon | K-562 leukemia | HT29 colon | HOP-62 NSCLC | DMS 273 small cell lung | SW-620 colon | XF 498 CNS | NCI-H460 lung | RPMI-8226 leukemia | SF-539 CNS | HOP-92 NSCLC | UO-31 renal | ACHN renal | 786-0 renal | LXFL 529 NSCLC | HOP-18 NSCLC

CSc1nnc(C(C#N)C#N)nn1
> 100 µM: IGROV1 ovarian | SR leukemia | SNB-19 CNS | OVCAR-3 ovarian | COLO 205 colon | SNB-78 CNS | LOX IMVI melanoma | SK-OV-3 ovarian | TK-10 renal | HL-60(TB) leukemia | UACC-62 melanoma | EKVX NSCLC | SK-MEL-5 melanoma | A549 NSCLC | RXF-631 renal | OVCAR-8 ovarian | DMS 114 small cell lung | HCT-15 colon | CAKI-1 renal | M14 melanoma | SF-268 CNS | SNB-75 CNS | HCC-2998 colon | CCRF-CEM leukemia | M19-MEL melanoma | KM20L2 colon | SF-295 CNS | RXF 393 renal | DLD-1 colon | MOLT-4 leukemia | A498 renal | NCI-H23 lung | U251 CNS | NCI-H226 lung | OVCAR-4 ovarian | KM12 colon | OVCAR-5 ovarian | UACC-257 melanoma | SN12C renal | HCT-116 colon | MALME-3M melanoma | K-562 leukemia | HT29 colon | HOP-62 NSCLC | DMS 273 small cell lung | SW-620 colon | XF 498 CNS | NCI-H460 lung | RPMI-8226 leukemia | SF-539 CNS | HOP-92 NSCLC | UO-31 renal | NCI-H522 lung | 786-0 renal | LXFL 529 NSCLC

CC(=O)C1C(=O)C(=O)N(CCN2C(=O)C(=O)C(C(C)=O)C2=O)C1=O (stereo unspecified)
> 100 µM: IGROV1 ovarian | SNB-19 CNS | OVCAR-3 ovarian | COLO 205 colon | LOX IMVI melanoma | SK-OV-3 ovarian | TK-10 renal | UACC-62 melanoma | EKVX NSCLC | SK-MEL-5 melanoma | RXF-631 renal | OVCAR-8 ovarian | DMS 114 small cell lung | HCT-15 colon | SK-MEL-28 melanoma | CAKI-1 renal | M14 melanoma | SF-268 CNS | SNB-75 CNS | HCC-2998 colon | M19-MEL melanoma | KM20L2 colon | SF-295 CNS | RXF 393 renal | A498 renal | NCI-H23 lung | U251 CNS | NCI-H226 lung | OVCAR-4 ovarian | KM12 colon | OVCAR-5 ovarian | UACC-257 melanoma | SN12C renal | SK-MEL-2 melanoma | HCT-116 colon | MALME-3M melanoma | K-562 leukemia | HT29 colon | HOP-62 NSCLC | DMS 273 small cell lung | SW-620 colon | XF 498 CNS | NCI-H460 lung | RPMI-8226 leukemia | SF-539 CNS | HOP-92 NSCLC | UO-31 renal | ACHN renal | NCI-H522 lung | 786-0 renal | LXFL 529 NSCLC | HOP-18 NSCLC
